Patent publication US20050209335A1, “Methods for use of TARGRETIN in organ transplant rejection, autoimmune diseases and cancer” (priority 2004, published 2005)
Where two headings read alike, the source gives them in different places.

How the values were obtained:
[1] = tested on: T-cell non-Hodgkin's lymphoma; test: TARGRETIN in patients with T-cell non-Hodgkin's lymphomas other than cutaneous T-cell lymphoma; assay type: in vivo, human
Experimental: Specifically, TARGRETIN was administered to a patient suffering from a post-transplant lymphoproliferative disorder type lymphoma. This is a T-cell non-Hodgkin's lymphoma related to organ transplantation. This patient had horrific lymphoma with involvement of their cerebral spinal fluid.
TARGRETIN was administered to a second patient suffering from a rare type of T-cell lymphoma, an angiocentric T-cell lymphoma.

[2] = tested on: squamous cell carcinoma of the head and neck; settings: cited from earlier work
[3] = tested on: non-small-cell lung carcinoma; settings: oral, in combination with cisplatin and vinorelbin, previously untreated patients; cited from earlier work
[4] = tested on: NMU-induced mammary carcinomas; settings: rat; cited from earlier work
eczema dermatitis = test: TARGRETIN as substitute for tacrolimus and steroids in eczema dermatitis; settings: in vivo
[5] = tested on: acute myeloid leukemia (AML); assay type: in vivo
Experimental: In these studies, five patients with relapsed refractory AML were treated with TARGRETIN monotherapy.
The first patient had failed induction chemotherapy, had fungal pneumonia, and active leukemia with no immune system. This patient was sent home under hospice care, but given TARGRETIN to take orally in a pill formulation. Within a few months, this patient no longer needed hospice care and had returned to work. It is believed that upon administration of TARGRETIN, this patient was able to maintain an immune system, thereby clearing the fungal pneumonia and preventing further fatal infections.
The second patient was a heart transplant patient who developed AML and failed induction chemotherapy as well as a second line of chemotherapy. With active leukemia and no immune system they were placed on TARGRETIN. […] Upon escalation of the TARGRETIN dose it was observed that their neutrophil count continued to increase and the leukemia count dropped. This increase in neutrophil count and decrease in leukemia count continued with each dose escalation until the patient was taking six TARGRETIN capsules a day. […] This syndrome is a cell differentiation disorder wherein leukemia cells differentiate into normal immune cells. While this syndrome is good in that it boosts the immune system while decreasing the leukemia count, cytokines released by the differentiating neutrophils can cause a pulmonary syndrome. At six TARGRETIN capsules a day the second patient developed a syndrome exactly like that observed in ATRA administration. TARGRETIN treatment was stopped and within one week the neutrophil count dropped from 1500 to 200 and the pulmonary syndrome resolved. TARGRETIN treatment was then restarted at three capsules daily and the neutrophil count returned to 600. This patient continued treatment for an additional 9 months at which time they developed an infection and died. At the time of death their leukemia was still well under control.
The third patient had failed induction therapy and was suffering from active AML with disseminated intravascular coagulation (DIC), a blood clotting disorder relating to active leukemia. This patient was completely bed-ridden. It was believed that they could not tolerate further chemotherapy and was placed on TARGRETIN. […] They also developed a small number of immune cells and was able to return to their home where their physical condition continued to improve. This patient lived for approximately 4.5 months before they developed progressive leukemia. At that point they declined further therapy and expired.
The fourth patient had raging AML. This patient was placed on TARGRETIN but expired within 3 days of starting treatment. It is believed that the TARGRETIN treatment may have been started too late in the course of this patient's disease to provide an effect.
The fifth patient treated with TARGRETIN was suffering from a relapse after already having undergone an allogeneic bone marrow transplant, one of the most aggressive treatments possible for AML. […] This patient ultimately expired, however, from complications relating to their bone marrow transplant.

[6] = Tolerability of TARGRETIN dosing regimes in patients; assay type: in vivo, human
Source text: Further, by “effective amount” as used herein, it is meant a concentration of TARGRETIN administered by a selected route and dosing schedule which lessens or decreases severity of a symptom of the disease state or condition from which the patient is suffering and/or a concentration of TARGRETIN which increases neutrophil count in a patient and/or a concentration of TARGRETIN which increases the efficacy of a co-administered cancer chemotherapeutic agent. Such amounts can be routinely determined by those skilled in the art based upon the teachings herein as well as what is known in the art about TARGRETIN with respect to treatment of cutaneous T-cell lymphoma. […] Further, the Food and Drug Administration's approved dose for TARGRETIN in the treatment of cutaneous T-cell lymphoma is 300 mg/M^2. It is expected that similar dosages will also be effective in treating autoimmune diseases or disorders, and in particular graft versus host disease, as well as organ transplant rejection.

melanoma = settings: single daily oral dose of 450 mg/m^2 in capsule form; cited from earlier work
[7] = tested on: refractory acute lymphocytic leukemia; test: TARGRETIN in combination with low dose chemotherapy in two patients with refractory acute lymphocytic leukemia; assay type: in vivo, human; settings: both patients
Experimental: In these experiments, two patients with refractory acute lymphocytic leukemia were treated with TARGRETIN in combination with low dose chemotherapy.

For `C=C(c1ccc(C(=O)O)cc1)c1cc2c(cc1C)C(C)(C)CCC2(C)C` [TARGRETIN], the duration of remission ([1]; patient with angiocentric T-cell lymphoma, prior bone marrow transplant failed) is listed as “in remission for three months”, the duration of remission ([1]; patient with post-transplant lymphoproliferative disorder type lymphoma, prior chemotherapy failed) is listed as “in remission for four months” and the effect on proliferation [2] is listed as “decrease”. The “response rate and survival” value [3] was “acceptable phase II response rates with better-than expected survival”, the “efficacy as chemopreventative and chemotherapeutic agent” value [4] was “efficacious” and the “efficacy in eczema dermatitis” value (eczema dermatitis) was “effective substitute for tacrolimus and steroids”. For the same compound, the “immune response upon initiation of treatment” value ([5]; fifth patient, relapse after allogeneic bone marrow transplant) was “mounted an immune system response”, the “duration leukemia kept under control” value ([5]; first patient, oral pill formulation) was “kept under control for nine months” and the “time to death after starting treatment” value ([5]; fourth patient, raging AML) was ≤ 3 days. For the same compound, the adverse event ([5]; human, in vivo) was “developed a pulmonary syndrome very similar to that seen in patients taking trans retinoic acid (ATRA)”, the “additional duration of treatment, leukemia still well under control at death” value ([5]; second patient, after restart at three capsules daily) was 9 months and the neutrophil count ([5]; second patient, at six capsules a day, before treatment was stopped) was 1500. For the same compound, the neutrophil count ([5]; second patient, treatment restarted at three capsules daily) was 600, the neutrophil count ([5]; second patient, within one week after TARGRETIN treatment was stopped) was 200 and the “change of neutrophil count and leukemia count after start of treatment” value ([5]; second patient, within one week of treatment) was “neutrophil count and/or immune system was rising and their leukemia count was dropping”. The “patients exhibiting a positive response (increase in neutrophil count and/or decrease in leukemia count)” value ([5]; terminal AML, TARGRETIN monotherapy) was 4 out of 5, the “resolution of disseminated intravascular coagulation (DIC)” value ([5]; third patient) was “resolved within four days” and the “time lived before progressive leukemia” value ([5]; third patient) was “approximately 4.5 months”. For the same compound, the tolerability ([6]; 100 to 150 mg per meter square of body surface area, ongoing clinical trials) was “well-tolerated”, the tolerability ([6]; oral 2-3 capsules a day or 150 to 225 mg a day) was “without unwanted side effects” and the efficacy against melanoma (melanoma) was “ineffective”. The “efficacy of combination treatment” value [7] was “significantly greater than expected”.
